Structures are written as SMILES. Entries after “also recorded” stand apart in the source; their conditions may differ.

This is an account of results in US9975860B2, “Anti-angiogenic compounds” (UNIVERSITY COLLEGE DUBLIN—NATIONAL UNIVERSITY OF IRELAND, …, priority 2014, dated 2018).

Test [1] deals with primary hyaloid vessels in zebrafish. The experiment in a line: Quantification of primary hyaloid vasculature branch number in Tg(fli1:EGFP) zebrafish. Format: in vivo. How it is done:
All experiments were carried out under ethical approval granted by the UCD animal research ethics committee. Tg(fli1:EGFP) zebrafish were maintained according to standard procedures on a 14 hr light/10 hr dark cycle at 28° C. Embryos were obtained by natural spawning and developmental stages established by time and morphological criteria. At 48 hours post fertilisation (hpf), 5 embryos per well were placed in 400 μl of Embryo Medium/0.1% DMSO and incubated with compound (typically, 10 μM) at 28° C. on a 14 h light/10 h dark cycle. At 5 days post fertilisation (dpf), larvae were euthanised, and fixed in 4% PFA at 4° C. overnight before analysis.
Prior to analysis of the intraocular vasculature, the control and treated larvae were observed under an Olympus SZX16 stereo zoom microscope and screened for general malformations. Overall patterning of the vasculature (fin, gut and intersegmental vessels) was examined for abnormalities. Right lenses were dissected from the larvae and transferred to depression slides for observation under epi-fluorescence in the Olympus SZX16. Patterning of the hyaloid vessels on the treated larval lenses was compared to 0.1% DMSO controls and the archetypal pattern previously described (Alvarez et al., 2007; Alvarez et al., 2009). The number of primary vessels radiating from the back of the lens (3-4 main branches at 5 dpf in controls and previously described), was counted and the average number was graphed for each drug.
(§1) All experimental protocols were carried out as per example 1 and 2. Briefly, zebrafish larvae were treated with 10 μM of AT-051/41206012 (chemical name 2-[2-(2-methoxyphenyl)ethenyl]pyrazine) purchased from Specs (The Netherlands). At 6 or 48 hours post fertilisation (hpf), 5 embryos per well were placed in 400 μl of Embryo Medium/0.1% DMSO and incubated with 10 μM AT-051/41206012 at 28° C. on a 14 h light/10 h dark cycle. Larvae were treated from 6-48 hpf (intersegmental vessel study) or from 48 to 120 hpf (primary hyaloid vessel study). At the end of the study, larvae were euthanized and fixed in 4% PFA at 4° C. overnight before analysis.
(§2) The number of intersegmental vessels was counted and the average number was graphed for each drug. Right lenses were dissected from the larvae and transferred to depression slides for observation and the number of primary hyaloid vessels radiating from the back of the lens (3-4 main branches at 5 dpf in controls and previously described), was counted and the average number was graphed for each drug.

Test [2] deals with intersegmental vasculature in zebrafish. The experiment in a line: Quantification of intersegmental vessel number in zebrafish. The note with it: 10 μM; zebrafish embryos treated 6 hpf to 48 hpf. Format: in vivo. How it is done: At 6 hours post fertilisation, 5 embryos per well were placed in 400 μL of embryo medium/0.1% DMSO and incubated with 10 μM compound at 28° C. on a 14 h light/10 h dark cycle. At 48 hpf larvae were manually dechorionated, euthanised, and fixed in 4% PFA at 4° C. overnight before analysis. The larvae were then washed with PBS and transferred to depression slides for observation under epi-fluorescence in an Olympus SZX16 fluorescent microscope. The number of intersegmental vessels was counted and the average number was graphed for each drug.
as §1, §2

The subject of test [3] is oxygen induced mouse model of retinopathy. The experiment in a line: Mouse oxygen-induced retinopathy model of neovascularisation. The conditions noted are these: 5 and 20 μM; intravitreal injection on P12, retinas analysed P17; mouse OIR; hydrochloride. Format: in vivo. An excerpt:
The mouse oxygen-induced retinopathy model was used to test the anti-angiogenic activity of compounds 4, 12 and 18. Mouse pups (together with their dams) were placed in 75% oxygen from postnatal day (P) 7 to P12, causing a regression of their retinal blood vessels. On P12, pups were placed back in normoxia (21%) causing a regrowth of retinal blood vessels. Pups received an intravitreal injection on P12, of compound 4, 12, 18 or vehicle control—Hank's Balanced Salt Solution, coinciding with their return to normoxia. Pups were culled on P17 and enucleated. Eyes were fixed in 4% paraformaldehyde, washed and dissected to form retinal flatmounts. Flatmounts were stained with isolectin to visualise blood vessels and imaged. The central avascular area (lacking a network of blood vessels) was quantified using FIJI image analysis software.

Another test deals with mouse aortic ring. The experiment in a line: Ex vivo mouse aortic ring assay (sprout formation). The conditions noted are these: 10 μM; C57/BL6 mouse aortic rings in matrigel; vs 0.1% DMSO; hydrochloride. How it is done:
Aortae from sex matched C57/BL6 littermates were cleansed of adipose tissue, cut into 2 mm rings and immersed in matrigel. Aortic rings (6 per experiment) were treated with 0.1% DMSO (vehicle control/VC) or with 10 μM of Compound 4, Compound 12, Compound 15 or Compound 20. Sprouts from the perimeter of the aortic ring were counted and quantified as percentage of vehicle control (VC).

As for `C/C(=C\c1ccccc1O)c1cnccn1.Cl` [Compound 12, (E)-2-[2-(Pyrazin-2-yl)prop-1-enyl]phenol hydrochloride], the “inhibition of developmental angiogenesis of the hyaloid vasculature (number of primary hyaloid vessels)” value in test [1] (10 μM, zebrafish larvae treated 48 hpf to 5 dpf, vs 0.1% DMSO control) is reported as “inhibit developmental angiogenesis of the zebrafish hyaloid vasculature in a statistically significant manner”; in test [1] (concentrations below 10 μM (range 1, 2.5, 5, 7.5 and 10 μM tested), zebrafish larvae 48 hpf to 5 dpf) it was “inhibit developmental angiogenesis of the zebrafish hyaloid vasculature in a statistically significant manner”. In addition, the “inhibition of developmental angiogenesis of intersegmental vessels (number of intersegmental vessels)” value in test [2] was “inhibit developmental angiogenesis of zebrafish intersegmental vessels in a statistically significant manner”. In addition, the “retinal neovascularisation / revascularisation (central avascular area)” value in test [3] is recorded as “significantly reduces retinal neovascularisation; also recorded: inhibits retinal revascularisation in a statistically significant manner”. In the test with mouse aortic ring, the “angiogenesis (sprout formation) in aortic rings” value is on record as “block angiogenesis (sprout formation); also recorded: inhibit the formation of sprouts in a statistically significant manner”.
